From patent US10654853B2, “Spiro-condensed pyrrolidine derivatives as deubiquitylating enzymes (DUB) inhibitors” (MISSION THERAPEUTICS LIMITED, priority 2016, dated 2020)

Biological target: Cezanne 1 (Homo sapiens (Human), UniProt Q6GQQ9)
Assay: Cezanne 1 biochemical IC50 assay (fluorescence polarisation, TAMRA labelled peptide linked to ubiquitin)
Settings: Cezanne 1 biochemical IC50 assay; 30 min pre-incubation, read after 2 hr at room temperature; read-out: IC50 range
Protocol: The Cezanne 1 construct was PCR amplified and cloned into a pFLAG-CMV-6c vector (Sigma-Aldrich) with an N-terminal FLAG tag. HEK293T cells were transfected with FLAG-Cezanne 1 using TransIT-LT1 transfection reagent (Mirus) according to the manufacturer's instructions. Cells were harvested 48 hours after transfection. […] The resin was washed two times with low salt buffer and one time with high salt buffer (20 mM Tris, pH 7.5, 500 mM NaCl, 0.5 mM EDTA, 5 mM beta-mercaptoethanol, protease inhibitors (complete mini, Roche) and phosphatase inhibitors (PhosSTOP mini, Roche). To elute the bound Cezanne 1, elution buffer (10 mM Tris, pH 7.5, 150 mM NaCl, 0.5 mM EDTA, 10% glycerol, 0.5% NP40, 5 mM beta-mercaptoethanol, 0.15 mg/ml 3× FLAG peptide (Sigma-Aldrich)) was added to the resin and incubated at 4° C. for 2.5 hours while rotating. The resin was centrifuged at 4000 rpm for 30 seconds, and the supernatant containing purified FLAG-Cezanne 1 was removed and stored at −80° C. […] Dilution plates were prepared at 21 times the final concentration (2100 μM for a final concentration of 100 μM) in 50% DMSO in a 96-well polypropylene V-bottom plate (Greiner #651201). […] Reactions were performed in duplicate in black 384 well plates (small volume, Greiner 784076) in a final reaction volume of 21 μl. Either 1 μl of 50% DMSO or diluted compound was added to the plate. Cezanne 1 was diluted in reaction buffer (40 mM Tris, pH 7.5, 0.005% Tween 20, 0.5 mg/ml BSA, 5 mM—beta-mercaptoethanol) to the equivalent of 0.005 μl/well and 10 μl of diluted Cezanne 1 was added to the compound. Enzyme and compound were incubated for 30 min at room temp. Reactions were initiated by the addition of 50 nM of TAMRA labelled peptide linked to ubiquitin via an iso-peptide bond as fluorescence polarisation substrate. Reactions were read immediately after addition of substrate and following a 2 hr incubation at room temperature. Readings were performed on a Pherastar Plus (BMG Labtech). λ Excitation 540 nm; λ Emission 590 nm.

Cezanne 1, sequence (Q6GQQ9 whole entry): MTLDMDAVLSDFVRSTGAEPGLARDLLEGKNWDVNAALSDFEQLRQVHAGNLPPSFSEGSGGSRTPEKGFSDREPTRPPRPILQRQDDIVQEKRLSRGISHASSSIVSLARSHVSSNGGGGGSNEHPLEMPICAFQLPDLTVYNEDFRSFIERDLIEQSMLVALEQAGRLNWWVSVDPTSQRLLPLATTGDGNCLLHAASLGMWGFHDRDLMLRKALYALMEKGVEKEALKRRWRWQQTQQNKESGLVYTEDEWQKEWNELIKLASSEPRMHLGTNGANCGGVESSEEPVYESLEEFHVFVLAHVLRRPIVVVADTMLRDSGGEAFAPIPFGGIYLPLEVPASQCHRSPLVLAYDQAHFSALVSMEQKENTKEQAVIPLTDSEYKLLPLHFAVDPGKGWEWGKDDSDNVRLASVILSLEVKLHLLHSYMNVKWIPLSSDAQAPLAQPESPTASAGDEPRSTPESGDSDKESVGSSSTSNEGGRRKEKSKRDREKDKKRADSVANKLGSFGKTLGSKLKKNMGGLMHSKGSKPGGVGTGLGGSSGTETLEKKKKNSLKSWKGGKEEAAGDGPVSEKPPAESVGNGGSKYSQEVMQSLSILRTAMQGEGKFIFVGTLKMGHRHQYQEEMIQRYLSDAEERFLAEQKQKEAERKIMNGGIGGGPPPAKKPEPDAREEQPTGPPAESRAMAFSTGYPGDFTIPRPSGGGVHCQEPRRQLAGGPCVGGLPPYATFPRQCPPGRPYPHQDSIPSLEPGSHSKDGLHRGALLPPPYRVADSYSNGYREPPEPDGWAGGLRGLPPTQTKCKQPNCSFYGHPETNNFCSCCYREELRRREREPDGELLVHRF

Structure (SMILES)	IC50 [nM]
Cn1cc(-c2ccc3c(c2)NC(=O)C2(CCN(C#N)C2)C3)ccc1=O (stereo not drawn) [Example 39, 7′-(1-Methyl-6-oxo-1,6-dihydropyridin-3-yl)-2′-oxo-1′,4′-dihydro-2′H-spiro[pyrrolidine-3,3′-quinoline]-1-carbonitrile]	1000 to 10000
Cc1nc2cc(-c3ccc4c(c3)NC(=O)C3(CCN(C#N)C3)C4)ccc2s1 (stereo not drawn) [Example 40, 7′-(2-Methylbenzo[d]thiazol-5-yl)-2′-oxo-1′,4′-dihydro-2′H-spiro[pyrrolidine-3,3′-quinoline]-1-carbonitrile]	100 to 1000
N#CN1CCC2(Cc3cc(-c4ccccc4)ccc3NC2=O)C1 (stereo not drawn) [Example 41, 2′-Oxo-6′-phenyl-1′,4′-dehydro-2′H-spiro[pyrrolidine-3,3′-quinoline]-1-carbonitrile]	100 to 1000
N#Cc1ccc(-c2ccc3c(c2)CC2(CCN(C#N)C2)C(=O)N3)cc1 (stereo not drawn) [Example 42, 6′-(4-Cyanophenyl)-2′-oxo-1′,4′-dihydro-2′H-spiro[pyrrolidine-3,3′-quinoline]-1-carbonitrile]	100 to 1000
N#Cc1cccc(-c2ccc3c(c2)CC2(CCN(C#N)C2)C(=O)N3)c1 (stereo not drawn) [Example 43, 6′-(3-Cyanophenyl)-2′-oxo-1′,4′-dihydro-2′H-spiro[pyrrolidine-3,3′-quinoline]-1-carbonitrile]	100 to 1000
N#CN1CCC2(Cc3cc(-c4ccc(F)cc4)ccc3NC2=O)C1 (stereo not drawn) [Example 44, 6′-(4-Fluorophenyl)-2′-oxo-1′,4′-dihydro-2′H-spiro[pyrrolidine-3,3′-quinoline]-1-carbonitrile]	100 to 1000
N#CN1CCC2(Cc3cc(-c4cccc(F)c4)ccc3NC2=O)C1 (stereo not drawn) [Example 45, 6′-(3-Fluorophenyl)-2′-oxo-1′,4′-dihydro-2′H-spiro[pyrrolidine-3,3′-quinoline]-1-carbonitrile]	100 to 1000
CN(C)C(=O)c1ccc2c(c1)NC(=O)C1(CCN(C#N)C1)C2 (stereo not drawn) [Example 46, 1-Cyano-N,N-dimethyl-2′-oxo-1′,4′-dihydro-2′H-spiro[pyrrolidine-3,3′-quinoline]-7′-carboxamide]	1000 to 10000
CNC(=O)c1ccc2c(c1)NC(=O)C1(CCN(C#N)C1)C2 (stereo not drawn) [Example 47, 1-Cyano-N-methyl-2′-oxo-1′,4′-dihydro-2′H-spiro[pyrrolidine-3,3′-quinoline]-7′-carboxamide]	1000 to 10000
N#CN1CCC2(C1)Oc1ncccc1NC2=O (stereo not drawn) [Example 48, 2-Oxo-1,2-dihydrospiro[pyrido[2,3-b][1,4]oxazine-3,3′-pyrrolidine]-1′-carbonitrile]	100 to 1000
N#CN1CCC2(C1)Oc1ncc(-c3ccccc3)cc1NC2=O (stereo not drawn) [Example 49, 2-Oxo-7-phenyl-1,2-dihydrospiro[pyrido[2,3-b][1,4]oxazine-3,3′-pyrrolidine]-1′-carbonitrile]	100 to 1000
N#Cc1ccc(-c2cnc3c(c2)NC(=O)C2(CCN(C#N)C2)O3)cc1 (stereo not drawn) [Example 50, 7-(4-Cyanophenyl)-2-oxo-1,2-dihydrospiro[pyrido[2,3-b][1,4]oxazine-3,3′-pyrrolidine]-1′-carbonitrile]	100 to 1000
N#Cc1cccc(-c2cnc3c(c2)NC(=O)C2(CCN(C#N)C2)O3)c1 (stereo not drawn) [Example 51, 7-(3-Cyanophenyl)-2-oxo-1,2-dihydrospiro[pyrido[2,3-b][1,4]oxazine-3,3′-pyrrolidine]-1′-carbonitrile]	100 to 1000
N#CN1CCC2(C1)Oc1ncc(-c3ccc(F)cc3)cc1NC2=O (stereo not drawn) [Example 52, 7-(4-Fluorophenyl)-2-oxo-1,2-dihydrospiro[pyrido[2,3-b][1,4]oxazine-3,3′-pyrrolidine]-1′-carbonitrile]	100 to 1000
N#CN1CCC2(C1)Oc1ncc(-c3cccc(F)c3)cc1NC2=O (stereo not drawn) [Example 53, 7-(3-Fluorophenyl)-2-oxo-1,2-dihydrospiro[pyrido[2,3-b][1,4]oxazine-3,3′-pyrrolidine]-1′-carbonitrile]	100 to 1000
N#CN1CCC2(C1)Oc1nc(-c3ccccc3)ccc1NC2=O (stereo not drawn) [Example 54, 2-Oxo-6-phenyl-1,2-dihydrospiro[pyrido[2,3-b][1,4]oxazine-3,3′-pyrrolidine]-1′-carbonitrile]	100 to 1000
N#CN1CCC2(C1)Nc1ncccc1NC2=O (stereo not drawn) [Example 55, 2-Oxo-1,4-dihydro-2H-spiro[pyrido[2,3-b]pyrazine-3,3′-pyrrolidine]-1′-carbonitrile]	1000 to 10000
N#CN1CCC2(C1)Nc1nc(C(F)(F)F)ccc1NC2=O (stereo not drawn) [Example 56, 2-Oxo-6-(trifluoromethyl)-1,4-dihydro-2H-spiro[pyrido[2,3-b]pyrazine-3,3′-pyrrolidine]-1′-carbonitrile]	1000 to 10000
N#CN1CCC2(C1)Nc1ncc(-c3ccccc3)cc1NC2=O (stereo not drawn) [Example 57, 2-Oxo-7-phenyl-1,4-dihydro-2H-spiro[pyrido[2,3-b]pyrazine-3,3′-pyrrolidine]-1′-carbonitrile]	100 to 1000
N#Cc1ccc(-c2cnc3c(c2)NC(=O)C2(CCN(C#N)C2)N3)cc1 (stereo not drawn) [Example 58, 7-(4-Cyanophenyl)-2-oxo-1,4-dihydro-2H-spiro[pyrido[2,3-b]pyrazine-3,3′-pyrrolidine]-1′-carbonitrile]	100 to 1000
N#CN1CCC2(C1)Nc1ncc(-c3ccc(F)cc3)cc1NC2=O (stereo not drawn) [Example 59, 7-(4-Fluorophenyl)-2-oxo-1,4-dihydro-2H-spiro[pyrido[2,3-b]pyrazine-3,3′-pyrrolidine]-1′-carbonitrile]	100 to 1000
N#CN1CCC2(C1)Nc1ncc(-c3cccc(F)c3)cc1NC2=O (stereo not drawn) [Example 60, 7-(3-Fluorophenyl)-2-oxo-1,4-dihydro-2H-spiro[pyrido[2,3-b]pyrazine-3,3′-pyrrolidine]-1′-carbonitrile]	100 to 1000
N#CN1CCC2(C1)Nc1cccnc1NC2=O (stereo not drawn) [Example 61, 3-Oxo-3,4-dihydro-1H-spiro[pyrido[2,3-b]pyrazine-2,3′-pyrrolidine]-1′-carbonitrile]	1000 to 10000
N#CN1CCC2(CCNC2=O)C1 (stereo not drawn) [Example 62, 6-Oxo-2,7-diazaspiro[4.4]nonane-2-carbonitrile]	> 10000
N#CN1CC[C@]2(CCNC2=O)C1 [Example 63, (R)-6-Oxo-2,7-diazaspiro[4.4]nonane-2-carbonitrile]	1000 to 10000
N#CN1CC[C@@]2(C1)Oc1ncc(-c3ccccc3)cc1NC2=O [Example 64, (S)-2-Oxo-7-phenyl-1,2-dihydrospiro[pyrido[2,3-b][1,4]oxazine-3,3′-pyrrolidine]-1′-carbonitrile]	100 to 1000
N#CN1CC[C@@]2(C1)Oc1ncccc1NC2=O [Example 65, (S)-2-Oxo-1,2-dihydrospiro[pyrido[2,3-b][1,4]oxazine-3,3′-pyrrolidine]-1′-carbonitrile]	1000 to 10000
N#CN1CC[C@@]2(C1)Nc1ncccc1NC2=O [Example 66, (S)-2-Oxo-1,4-dihydro-2H-spiro[pyrido[2,3-b]pyrazine-3,3′-pyrrolidine]-1′-carbonitrile]	100 to 1000
N#CN1CC[C@]2(Cc3cc(-c4ccccc4)ccc3NC2=O)C1 [Example 67, (R)-2′-Oxo-6′-phenyl-1′,4′-dihydro-2′H-spiro[pyrrolidine-3,3′-quinoline]-1-carbonitrile]	100 to 1000
N#CN1CC[C@@]2(C1)Nc1ncc(-c3ccccc3)cc1NC2=O [Example 68, (S)-2-Oxo-7-phenyl-1,4-dihydro-2H-spiro[pyrido[2,3-b]pyrazine-3,3′-pyrrolidine]-1′-carbonitrile]	100 to 1000
